# Entries after “also recorded” stand apart in the source; their conditions may differ. Like-named read-outs stand apart in the source and are kept apart here.
# Legend:
# PLpro [1] = conditions: cited from earlier work; for IC50: read-out: Reported enzyme inhibition potency IC50, see referenced publications for assay details
# in vitro = conditions: human
# SARS-CoV-2 (strain WA1) [2] = assay type: cell-based
# SARS-CoV-2 (strain WA1) [3] = assay: Antiviral plaque assay in Vero cells with P-gp inhibitor CP-100356; assay type: cell-based
# [4] = Plasma PK of 32 (Figure S1)
# COVID-19 = conditions: human, in vivo, po; cited from earlier work
# Vero E6 cells = conditions: cited from earlier work
# SARS-CoV-2 [5] = conditions: read-out: Reported cell-based antiviral potency EC50; cited from earlier work
# A549-hACE2 cells = conditions: cited from earlier work
# [6] = Plasma exposure after 50 mg/kg i.p. in male C57BL/6 mice
# SARS-CoV-2 [7] = conditions: cited from earlier work
# in vivo [8] = conditions: C57BL/6, mouse, plasma, ip, 25 mg/kg
# [9] = 64 25 mg/kg i.p., between 0.5 to 5 h after administration
# [10] = i.v. hamster, 2 mg/kg
# in vivo [11] = conditions: male, hamster, plasma
# in vivo [12] = conditions: male, C57BL/6, mouse, plasma
# Plasma protein binding = conditions: human
# PLpro [13] = conditions: compared with all inhibitors studied; cited from earlier work
# [14] = Comparison of plasma PK of 10 and 42 (Figure S3); conditions: 25 mg/kg i.p. (Figure S3)
compound,measurement,setting,value
"Nc1ccc2cc3ccc(N)cc3nc2c1 [Compound 6, proflavine]",IC50,PLpro [1],1.46 µM
"Cc1ccc(OC2CCNCC2)cc1C(=O)N[C@H](C)c1cccc(-c2ccc(CNC3CCCC3)s2)c1 [Compound 44, (R)-N-(1-(3-(5-((Cyclopentylamino)methyl)thiophen-2-yl)phenyl)ethyl)-2-methyl-5-(piperidin-4-yloxy)benzamide]",CC50,in vitro,22 ± 0.9 µM
"Cc1ccc(NC2CNC2)cc1C(=O)N[C@H](C)c1cccc(-c2ccc(CNC(=O)C3CCCC3)s2)c1 [Compound 32, (R)-5-(Azetidin-3-ylamino)-N-(1-(3-(5-(cyclopentanecarboxamidomethyl)thiophen-2-yl)phenyl)ethyl)-2-methylbenzamide]",antiviral activity by RT-PCR of viral RNA,SARS-CoV-2 (strain WA1) [2],lack of activity
same,efficacy in inhibiting viral replication (plaque assay),SARS-CoV-2 (strain WA1) [3],almost complete loss of antiviral activity
same,bioavailability administered i.p.,[4]; 25 mg/kg i.p. (Figure S1),good bioavailability
same,oral bioavailability,"[4]; p.o. 100 mg/kg in corn oil, gavage (Figure S1)",without oral bioavailability
"CC(C)C(=O)OC[C@H]1O[C@@H](n2cc/c(=N\O)[nH]c2=O)[C@H](O)[C@@H]1O [Compound 65, Molnupiravir]",efficacy against hospitalization or death,COVID-19,about 30%
Cc1ccc(NC2CNC2)cc1C(=O)N[C@H](C)c1cccc(-c2ccc(CN3CCCC3)s2)c1 [Compound 2],potency against viral infection,Vero E6 cells,low micromolar potency
same,EC50,SARS-CoV-2 [5],1.2 ± 0.2 µM
same,potency against viral infection,A549-hACE2 cells,low micromolar potency
same,toxicity observation,[6],overt toxicity
CC(C)(C)[C@H](NC(=O)C(F)(F)F)C(=O)N1C[C@H]2[C@@H]([C@H]1C(=O)N[C@H](C#N)C[C@@H]1CCNC1=O)C2(C)C [nirmatrelvir],left-shift in the response caused by CP-100356,SARS-CoV-2 [7],ca. 100 fold
"Cc1ccc(NC2CNC2)cc1C(=O)N[C@H](C)c1cccc(-c2ccc(CN[C@H]3CC[C@@H](C(=O)O)C3)s2)c1 [Compound 39, (1R,3S)-3-(((5-(3-((R)-1-(5-(Azetidin-3-ylamino)-2-methylbenzamido)ethyl)phenyl)thiophen-2-yl)methyl)amino)cyclopentane-1-carboxylic Acid]",Cmax,in vivo [8],7910 ng/mL
same,half-life,in vivo [8],2 h
"Cc1ccc(OCCN)cc1C(=O)N[C@H](C)c1cccc(-c2ccc(CN3CCCC3)s2)c1 [Compound 48, (R)-5-(2-Aminoethoxy)-2-methyl-N-(1-(3-(5-(pyrrolidin-1-ylmethyl)thiophen-2-yl)phenyl)ethyl)benzamide]",efficacy in inhibiting viral replication (plaque assay),SARS-CoV-2 (strain WA1) [3],low efficacy
"Cc1ccc(NC2CNC2)cc1C(=O)N[C@H](C)c1cccc(-c2ccc(CN[C@H]3CC[C@@H](C(=O)OC[C@H]4O[C@@H](n5ccc(NO)nc5=O)[C@H](O)[C@@H]4O)C3)s2)c1 [Compound 64, ((3S,4R,5R)-3,4-Dihydroxy-5-(4-(hydroxyamino)-2-oxopyrimidin-1(2H)-yl)tetrahydrofuran-2-yl)methyl (1R,3S)-3-(((5-(3-((R)-1-(5-(azetidin-3-ylamino)-2-methylbenzamido)ethyl)phenyl)thiophen-2-yl)methyl)amino)cyclopentane-1-carboxylate]",detection of mutual prodrug in plasma,[9],not detectable; also recorded: undetectable
Cc1ccc(NC2CNC2)cc1C(=O)N[C@H](C)c1cccc(-c2ccc(CNC3CCCC3)s2)c1 [Compound 10],potency against viral infection,Vero E6 cells,low micromolar potency
same,plasma clobs,"i.v. mouse, 2 mg/kg",111 ± 16 mL/min/kg
same,bioavailability,"i.v./s.c., mice and hamsters, minor species differences",good
same,half-life,Human plasma stability,60 h
same,CC50,in vitro,43 ± 1.8 µM
same,potency against viral infection,A549-hACE2 cells,low micromolar potency
same,plasma clobs,[10],75 ± 5 mL/min/kg
same,Cmax,"in vivo [11]; iv, 2 mg/kg",2920 ± 474 ng/mL
same,Cmax,"in vivo [11]; sc, 20 mg/kg",1220 ± 276 ng/mL
same,Cmax,"in vivo [12]; iv, 2 mg/kg",734 ± 125 ng/mL
same,Cmax,"in vivo [12]; sc, 50 mg/kg",3190 ± 667 ng/mL
same,fraction unbound,Plasma protein binding,0.033
"Cc1ccc(NC2CNC2)cc1C(=O)N[C@H](C)c1cccc(-c2cc(C)c(CNC3CCCC3)s2)c1 [Compound 16, (R)-5-(Azetidin-3-ylamino)-N-(1-(3-(5-((cyclopentylamino)methyl)-4-methylthiophen-2-yl)phenyl)ethyl)-2 Methylbenzamide]",CC50,in vitro,27 ± 1.4 µM
"CC(=O)OC(C)OC(=O)N1CC(Nc2ccc(C)c(C(=O)N[C@H](C)c3cccc(-c4ccc(CNC(=O)C5CCCC5)s4)c3)c2)C1 (stereo partly drawn) [Compound 62, 1-Acetoxyethyl 3-((3-(((R)-1-(3-(5-(cyclopentanecarboxamidomethyl)thiophen-2-yl)phenyl)ethyl)carbamoyl)-4-methylphenyl)amino)azetidine-1-carboxylate]",antiviral activity by RT-PCR of viral RNA,SARS-CoV-2 (strain WA1) [2],not greatly improved
CC(=O)Nc1cccc(CNC(=O)C2CCN([C@H](C)c3cccc4ccccc34)CC2)c1 [Compound 3],IC50,PLpro [1],2.69 ± 0.34 µM
Cc1ccc(NC2CNC2)cc1C(=O)N[C@H](C)c1cccc(-c2ccc(CN[C@H]3CC[C@@H](O)C3)s2)c1 [Compound 11],efficacy in inhibiting viral replication (plaque assay),SARS-CoV-2 (strain WA1) [3],least efficacious compound
same,off-rate,PLpro [13],lowest off-rate
"Cc1ccc(OC2CNC2)cc1C(=O)N[C@H](C)c1cccc(-c2ccc(CN3CCCC3)s2)c1 [Compound 42, (R)-5-(Azetidin-3-yloxy)-2-methyl-N-(1-(3-(5-(pyrrolidin-1-ylmethyl)thiophen-2-yl)phenyl)ethyl)benzamide]",in vivo exposure compared to 10,[14],significantly lower exposure
same,efficacy in inhibiting viral replication (plaque assay),SARS-CoV-2 (strain WA1) [3],relatively higher efficacy
COC(=O)/C=C/CNC(=O)CNC(=O)[C@H](CN)NC(=O)[C@H](CCc1nc2ccccc2s1)NC(C)=O [Compound 8],Reported enzyme inhibition,PLpro [1]; at 100 μM,almost complete inhibition

# Reference: paper PMC11345844, “Non-Covalent Inhibitors of SARS-CoV-2 Papain-Like Protease (PLpro): In Vitro and In Vivo Antiviral Activity” (Journal of Medicinal Chemistry, 2024)
